From patent publication US20260297042A1, “BIARYLAMIDE DERIVATIVES AND THEIR USE AS PKMYT1 INHIBITORS” (CANCER RESEARCH TECHNOLOGY LIMITED, priority 2023, published 2026)

Tests used:
KYSE-30 cells = assay: Cancer cell line proliferation assay, ATP-based cell viability (Cell Titre Glow), KYSE-30 (normal CCNE1); details: Homo sapiens, KYSE-30 cells (normal CCNE1), concentration that achieves 50% cell growth proliferation inhibition, read-out: KYSE30 Gl50
Outline: (§1)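 CellTiter-Glo luminescence endpoint; PKMYT1 inhibitor exposure; GI50 = conc. for 50% growth inhibition, curve-fitted.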

OVCAR 3 cells = assay: Cancer cell line proliferation assay, ATP-based cell viability (Cell Titre Glow), OVCAR 3 (CCNE1-amplified); details: KYSE30 (normal CCNE1) GI50 vs. OVCAR 3 (CCNE1-amplified) GI50
Outline: as §1

WEE1 = target: T1, WEE1 (Homo sapiens, UniProt P30291); assay: Selectivity versus WEE1 assay (ADP-Glo enzymatic assay); assay type: biochemical; details: for IC50: WEE1 15 nM, ADP-Glo, banded values; for PKMYT1 vs. WEE1 selectivity: fold difference in selectivity for PKMYT1 over WEE1, banded
T1 construct: purchased Thermo Fisher PR7373A
T1 sequence (P30291 whole entry): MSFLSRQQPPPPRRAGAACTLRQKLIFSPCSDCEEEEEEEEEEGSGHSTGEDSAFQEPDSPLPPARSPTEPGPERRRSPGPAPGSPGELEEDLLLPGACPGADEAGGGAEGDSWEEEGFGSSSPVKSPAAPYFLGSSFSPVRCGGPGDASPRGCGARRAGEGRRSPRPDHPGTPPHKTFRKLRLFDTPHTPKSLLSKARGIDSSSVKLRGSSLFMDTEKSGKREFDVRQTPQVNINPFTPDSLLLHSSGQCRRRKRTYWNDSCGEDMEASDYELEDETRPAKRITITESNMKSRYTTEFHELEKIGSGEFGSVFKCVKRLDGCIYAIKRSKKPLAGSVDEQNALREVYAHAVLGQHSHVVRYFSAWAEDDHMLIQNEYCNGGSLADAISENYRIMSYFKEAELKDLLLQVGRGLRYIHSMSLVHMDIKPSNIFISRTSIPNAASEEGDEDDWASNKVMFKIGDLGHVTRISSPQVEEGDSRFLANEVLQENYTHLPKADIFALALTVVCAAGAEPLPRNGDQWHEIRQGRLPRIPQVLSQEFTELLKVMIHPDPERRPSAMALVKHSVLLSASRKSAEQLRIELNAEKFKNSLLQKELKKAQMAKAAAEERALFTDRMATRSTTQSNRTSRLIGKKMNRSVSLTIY
Outline: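 ADP-Glo luminescent read-out after a 60-min, 26 °C kinase reaction of 15 nM WEE1 with 30 µM ATP, in HEPES pH 7.5 buffer containing MgCl2, EGTA, Brij-35 and 1% DMSO. IC50 accepted only when replicate values agree within 3-fold and curve fit r2 exceeds 0.9.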

Human PKMYT1 = target: T2, Human PKMYT1 (Homo sapiens, UniProt Q99640); assay: PKMYT1 biochemical ADP-Glo enzymatic assay; details: PKMYT1 kinase domain 15 nM; ADP-Glo; banded values
T2 construct: Human PKMYT1 75-362 was cloned as a TEV cleavable 6xHis fusion; 6xHis (TEV cleavable) (cleaved yes); made in house; host or cells: bacterial cells
T2 sequence (Q99640 75-362): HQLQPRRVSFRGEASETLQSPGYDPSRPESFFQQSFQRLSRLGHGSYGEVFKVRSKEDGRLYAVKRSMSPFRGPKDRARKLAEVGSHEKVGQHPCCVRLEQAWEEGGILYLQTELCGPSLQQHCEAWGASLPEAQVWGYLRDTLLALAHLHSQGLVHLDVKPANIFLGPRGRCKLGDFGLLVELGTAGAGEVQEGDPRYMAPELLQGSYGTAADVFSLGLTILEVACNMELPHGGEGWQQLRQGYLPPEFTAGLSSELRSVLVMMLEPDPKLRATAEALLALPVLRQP
Outline: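 IC50 values come from 10-point 3-fold series, with replicates required within 3-fold and r2 >0.9. ADP formed by PKMYT1 intrinsic ATPase (500 uM ATP, 60 min, 26° C.) was quantified by ADP-Glo luminescence. The enzyme was the TEV-cleaved kinase domain 75-362 at 15 nM, in HEPES pH 7.5 buffer.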

[1] = target: T3, Cellular PKMYT1 Biomarker CDK1 pT14 (Homo sapiens, UniProt Q99640); assay: Inhibition of cellular PKMYT1 biomarker CDK1 pT14 in OVCAR 3 cells (immunoblot); assay type: cell-based; details: 20 hours incubation
T3 construct: read-out CDK1 phospho-T14 immunoblot
T3 sequence (Q99640 1-499): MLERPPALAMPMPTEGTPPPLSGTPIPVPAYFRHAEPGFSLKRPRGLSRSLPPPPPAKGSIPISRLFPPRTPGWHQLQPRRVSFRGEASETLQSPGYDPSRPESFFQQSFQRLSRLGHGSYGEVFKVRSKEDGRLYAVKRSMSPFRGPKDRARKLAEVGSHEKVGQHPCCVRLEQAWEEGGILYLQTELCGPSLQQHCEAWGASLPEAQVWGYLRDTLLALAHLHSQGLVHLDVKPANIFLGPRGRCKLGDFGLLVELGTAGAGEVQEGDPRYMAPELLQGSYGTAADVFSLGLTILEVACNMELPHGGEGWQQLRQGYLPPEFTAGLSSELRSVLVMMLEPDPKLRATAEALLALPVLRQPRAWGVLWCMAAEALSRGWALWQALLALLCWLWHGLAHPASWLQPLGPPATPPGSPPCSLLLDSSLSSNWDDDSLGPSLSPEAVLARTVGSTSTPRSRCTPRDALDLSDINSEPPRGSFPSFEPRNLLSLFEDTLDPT
Method: To determine compound PKMYT1 IC50 in a cellular assay, OVCAR 3 cells were incubated at 37° C. in 5% CO2 atmosphere. The cells were maintained in RPMI medium supplemented with 20% foetal bovine serum, 1X non essential amino acids, 1 mM sodium pyruvate, Glutamax and insulin. Cells were seeded into 12-well plates at low density (50,000-200,000 cells per well), grown to confluence (~350-400,000 cells per well) and then treated with a range of concentrations of PKMYT1 inhibitors. The cells were incubated 20 hours and then harvested into 1X Laemmli Sample Buffer (BIORAD) without 2-mercaptoethanol, heated to 95° C. for 5 min, centrifuged and sonicated using a microprobe for 15 sec, 21W to shear the DNA.
The samples were analysed by immunoblot on a Jess Automated Western Blot System (BioTechne). The samples were separated using the 12-230 kDa Separation Module (BioTechne,) and blotted using an anti-CDK1 phospho T14 antibody (Abcam, #ab58509) and an anti-vinculin antibody (Abcam, #126002). Specific binding was detected by fluorescence using the Anti-Rabbit Detection Module (BioTechne, #DM-001), quantified using Compass for Simple Western software, and IC50 values were calculated by regression analysis in GraphPad Prism.

SMILES	IC50 (WEE1) [nM]	PKMYT1 vs. WEE1 selectivity (WEE1)	IC50 (Human PKMYT1) [nM]	IC50 [1] [nM]	GI50 (KYSE-30 cells) [nM]	Selectivity ratio KYSE30 Gl50 vs. OVCAR3 Gl50 (OVCAR 3 cells)
Cc1ccc(O)c(C)c1NC(=O)c1cnc(Nc2cccc(-c3cccnc3)n2)s1 [BAA-397, 2-([2,3′-bipyridin]-6-ylamino)-N-(3-hydroxy-2,6-dimethylphenyl)thiazole-5-carboxamide]	1000 to 11000	W (10-<100 fold)	< 50	< 100	500 to 5000	Y (>20 fold)
Cc1ccc(O)c(C)c1NC(=O)c1cnc(Nc2cccc(CC(=O)N(C)C3CC3)n2)s1 [BAA-428, 2-((6-(2-(Cyclopropyl(methyl)amino)-2-oxoethyl)pyridin-2-yl)amino)-N-(3-hydroxy-2,6-dimethylphenyl)thiazole-5-carboxamide]	–	–	< 50	< 100	> 5000	Y (>20 fold)
Cc1cn(CC(F)F)nc1Nc1nnc(C(=O)Nc2c(C)ccc(O)c2C)s1 [BAA-464, 5-((1-(2,2-Difluoroethyl)-4-methyl-1H-pyrazol-3-yl)amino)-N-(3-hydroxy-2,6-dimethylphenyl)-1,3,4-thiadiazole-2-carboxamide]	> 11000	Y (1000-5000 fold)	< 50	100 to 1000	–	–
Cc1ccc(O)c(C)c1NC(=O)c1cnc(Nc2nn(C)c3ccc(C(F)(F)F)cc23)s1 [BAA-454, N-(3-hydroxy-2,6-dimethylphenyl)-2-((1-methyl-5-(trifluoromethyl)-1H-indazol-3-yl)amino)thiazole-5-carboxamide]	> 11000	X (100-<1000 fold)	50 to 1000	< 100	–	–
Cc1cn(CC#N)nc1Nc1ncc(C(=O)Nc2c(C)ccc(O)c2C)s1 [BAA-467, 2-((1-(cyanomethyl)-4-methyl-1H-pyrazol-3-yl)amino)-N-(3-hydroxy-2,6-dimethylphenyl)thiazole-5-carboxamide]	50 to 1000	W (10-<100 fold)	< 50	< 100	–	–
Cc1ccc(O)c(C)c1NC(=O)c1cnc(Nc2ncccc2C2CC2)s1 [BAA-412, 2-((3-cyclopropylpyridin-2-yl)amino)-N-(3-hydroxy-2,6-dimethylphenyl)thiazole-5-carboxamide]	> 11000	Z (>5000 fold)	< 50	100 to 1000	–	–
Cc1ccc(O)c(C)c1NC(=O)c1cnc(Nc2ncccc2F)s1 [BAA-411, 2-((3-fluoropyridin-2-yl)amino)-N-(3-hydroxy-2,6-dimethylphenyl)thiazole-5-carboxamide]	> 11000	Y (1000-5000 fold)	< 50	100 to 1000	–	–
Cn1cc(Br)c(Nc2ncc(C(=O)Nc3c(Cl)ccc(O)c3F)s2)n1 [BAA-471, 2-((4-Bromo-1-methyl-1H-pyrazol-3-yl)amino)-N-(6-chloro-2-fluoro-3-hydroxyphenyl)thiazole-5-carboxamide]	> 11000	X (100-<1000 fold)	50 to 1000	100 to 1000	–	–
Cc1cccnc1Nc1ncc(C(=O)Nc2c(C)ccc(O)c2C)s1 [BAA-415, N-(3-hydroxy-2,6-dimethylphenyl)-2-((3-methylpyridin-2-yl)amino)thiazole-5-carboxamide]	> 11000	X (100-<1000 fold)	< 50	< 100	–	–

More lines, main results first:

IC50 (WEE1) [nM]	PKMYT1 vs. WEE1 selectivity (WEE1)	IC50 (Human PKMYT1) [nM]	IC50 [1] [nM]	SMILES	GI50 (KYSE-30 cells) [nM]	Selectivity ratio KYSE30 Gl50 vs. OVCAR3 Gl50 (OVCAR 3 cells)
50 to 1000	W (10-<100 fold)	< 50	< 100	Cc1ccc(O)c(C)c1NC(=O)c1cnc(Nc2nn(CC#N)cc2Br)s1 [BAA-586, 2-((4-bromo-1-(cyanomethyl)-1H-pyrazol-3-yl)amino)-N-(3-hydroxy-2,6-dimethylphenyl)thiazole-5-carboxamide]	500 to 5000	X (3-20 fold)
50 to 1000	W (10-<100 fold)	< 50	< 100	Cc1nc(Nc2ncc(C(=O)Nc3c(C)ccc(O)c3C)s2)cc(N2CCOCC2)n1 [BAA-572, N-(3-hydroxy-2,6-dimethylphenyl)-2-((2-methyl-6-morpholinopyrimidin-4-yl)amino)thiazole-5-carboxamide]	500 to 5000	Y (>20 fold)
1000 to 11000	W (10-<100 fold)	< 50	< 100	Cc1cn(CC2CCOC2)nc1Nc1ncc(C(=O)Nc2c(C)ccc(O)c2C)s1 (centres unmarked) [BAA-543]	> 5000	Y (>20 fold)
> 11000	X (100-<1000 fold)	< 50	100 to 1000	Cc1ccc(O)c(C)c1NC(=O)c1cnc(Nc2ccn(C3CCN(C)C3=O)n2)s1 (centres unmarked) [BAA-601, N-(3-hydroxy-2,6-dimethylphenyl)-2-((1-(1-methyl-2-oxopyrrolidin-3-yl)-1H-pyrazol-3-yl)amino)thiazole-5-carboxamide]	–	–
> 11000	Y (1000-5000 fold)	< 50	100 to 1000	Cc1ccc(O)c(C)c1NC(=O)c1cnc(Nc2nccc3cccnc23)s1 [BAA-604, 2-((1,7-naphthyridin-8-yl)amino)-N-(3-hydroxy-2,6-dimethylphenyl)thiazole-5-carboxamide]	–	–
> 11000	X (100-<1000 fold)	< 50	< 100	COCC(C(=O)N1CCCC1)n1cc(C)c(Nc2ncc(C(=O)Nc3c(C)ccc(O)c3C)s2)n1 (centres unmarked) [BAA-577, N-(3-Hydroxy-2.6-dimethylphenyl)-2-((1-(3-methoxy-1-oxo-1-(pyrrolidin-1-yl)propan-2-yl)-4-methyl-1H-pyrazol-3-yl)amino)thiazole-5-carboxamide]	–	–
1000 to 11000	X (100-<1000 fold)	< 50	100 to 1000	Cc1ccc(O)c(C)c1NC(=O)c1cnc(Nc2n[nH]cc2F)s1 [BAA-593, 2-((4-Fluoro-1H-pyrazol-3-yl)amino)-N-(3-hydroxy-2,6-dimethylphenyl)thiazole-5-carboxamide]	–	–
1000 to 11000	X (100-<1000 fold)	< 50	100 to 1000	Cc1ccc(O)c(C)c1NC(=O)c1cnc(Nc2nn(C)cc2Br)s1 [BAA-473, 2-((4-bromo-1-methyl-1H-pyrazol-3-yl)amino)-N-(3-hydroxy-2,6-dimethylphenyl)thiazole-5-carboxamide]	–	–
1000 to 11000	X (100-<1000 fold)	< 50	100 to 1000	Cc1cn(CC(=O)N(C)CCC#N)nc1Nc1ncc(C(=O)Nc2c(C)ccc(O)c2C)s1 [BAA-523, 2-((1-(2-((2-cyanoethyl)(methyl)amino)-2-oxo-ethyl)-4-methyl-1H-pyrazol-3-yl)amino)-N-(3-hydroxy-2,6-dimethylphenyl)thiazole-5-carboxamide]	–	–
